Experiments:
Assay in all cases: relative viability (nuclei count vs DMSO), 5 days (fraction); higher = more cells survive
AGI-6780 + Phenformin = compound: O=C(Nc1cccc(C(F)(F)F)c1)Nc1cc(S(=O)(=O)NC2CC2)ccc1-c1ccsc1 [AGI-6780] + N=C(N)NC(=N)NCCc1ccccc1 [Phenformin] (partner 250 µM)
Method in brief: (§1)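 Dosing by pin tool came one day after lung cancer cell lines were seeded in 1536-well plates, using either one drug or a fixed anchor-drug dose plus five library-drug doses (not always all listed) in √10 steps. After 5 days, nuclei were counted on 4× images. Relative viability is treated-well nuclei count divided by vehicle-well nuclei count, and values are medians of duplicate plates.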

AGI-6780 + OSI-027 = compound: O=C(Nc1cccc(C(F)(F)F)c1)Nc1cc(S(=O)(=O)NC2CC2)ccc1-c1ccsc1 [AGI-6780] + COc1cccc2cc(-c3nc([C@H]4CC[C@H](C(=O)O)CC4)n4ncnc(N)c34)[nH]c12 [OSI-027] (partner 0.5 µM)
Method in brief: as §1

AGI-6780 + Crizotinib = compound: O=C(Nc1cccc(C(F)(F)F)c1)Nc1cc(S(=O)(=O)NC2CC2)ccc1-c1ccsc1 [AGI-6780] + C[C@@H](Oc1cc(-c2cnn(C3CCNCC3)c2)cnc1N)c1c(Cl)ccc(F)c1Cl [Crizotinib] (partner 1 µM)
Method in brief: as §1

AGI-6780 + Trametinib = compound: O=C(Nc1cccc(C(F)(F)F)c1)Nc1cc(S(=O)(=O)NC2CC2)ccc1-c1ccsc1 [AGI-6780] + CC(=O)Nc1cccc(-n2c(=O)n(C3CC3)c(=O)c3c(Nc4ccc(I)cc4F)n(C)c(=O)c(C)c32)c1 [Trametinib] (partner 0.02 µM)
Method in brief: as §1

LCLC-97TM1 was tested, and the relative viability (AGI-6780 + Phenformin; first compound 0.08 µM) was 0.402, the relative viability (AGI-6780 + Phenformin; first compound 0.253 µM) was 0.409 and the relative viability (AGI-6780 + Phenformin; first compound 0.8 µM) was 0.419. For the same cell line, the relative viability (AGI-6780 + Phenformin; first compound 2.53 µM) was 0.439, the relative viability (AGI-6780 + Phenformin; first compound 8 µM) was 0.436 and the relative viability (AGI-6780 + OSI-027; first compound 0.08 µM) was 0.596. It also gave a relative viability (AGI-6780 + OSI-027; first compound 0.253 µM) of 0.697, a relative viability (AGI-6780 + OSI-027; first compound 0.8 µM) of 0.492 and a relative viability (AGI-6780 + OSI-027; first compound 2.53 µM) of 0.398. The relative viability (AGI-6780 + OSI-027; first compound 8 µM) was 0.643, the relative viability (AGI-6780 + Crizotinib; first compound 0.08 µM) was 0.417 and the relative viability (AGI-6780 + Crizotinib; first compound 0.253 µM) was 0.48. It also gave a relative viability (AGI-6780 + Crizotinib; first compound 0.8 µM) of 0.668, a relative viability (AGI-6780 + Crizotinib; first compound 8 µM) of 0.344 and a relative viability (AGI-6780 + Trametinib; first compound 0.08 µM) of 0.173. For the same cell line, the relative viability (AGI-6780 + Trametinib; first compound 0.253 µM) was 0.21, the relative viability (AGI-6780 + Trametinib; first compound 0.8 µM) was 0.152 and the relative viability (AGI-6780 + Trametinib; first compound 2.53 µM) was 0.159. The relative viability (AGI-6780 + Trametinib; first compound 8 µM) was 0.197.
LCLC-103H was tested, and the relative viability (AGI-6780 + Phenformin; first compound 0.08 µM) was 0.311, the relative viability (AGI-6780 + Phenformin; first compound 0.253 µM) was 0.305 and the relative viability (AGI-6780 + Phenformin; first compound 0.8 µM) was 0.338. For the same cell line, the relative viability (AGI-6780 + Phenformin; first compound 2.53 µM) was 0.33, the relative viability (AGI-6780 + Phenformin; first compound 8 µM) was 0.375 and the relative viability (AGI-6780 + OSI-027; first compound 0.08 µM) was 0.554. For the same cell line, the relative viability (AGI-6780 + OSI-027; first compound 0.253 µM) was 0.518, the relative viability (AGI-6780 + OSI-027; first compound 0.8 µM) was 0.45 and the relative viability (AGI-6780 + OSI-027; first compound 2.53 µM) was 0.38. For the same cell line, the relative viability (AGI-6780 + OSI-027; first compound 8 µM) was 0.491, the relative viability (AGI-6780 + Crizotinib; first compound 0.08 µM) was 1.08 and the relative viability (AGI-6780 + Crizotinib; first compound 0.253 µM) was 1.12. It also gave a relative viability (AGI-6780 + Crizotinib; first compound 0.8 µM) of 1, a relative viability (AGI-6780 + Crizotinib; first compound 2.53 µM) of 1.03 and a relative viability (AGI-6780 + Crizotinib; first compound 8 µM) of 1.01. For the same cell line, the relative viability (AGI-6780 + Trametinib; first compound 0.08 µM) was 0.678, the relative viability (AGI-6780 + Trametinib; first compound 0.253 µM) was 0.709 and the relative viability (AGI-6780 + Trametinib; first compound 0.8 µM) was 0.643. For the same cell line, the relative viability (AGI-6780 + Trametinib; first compound 2.53 µM) was 0.644 and the relative viability (AGI-6780 + Trametinib; first compound 8 µM) was 0.696.
With LK-2 the relative viability (AGI-6780 + Phenformin; first compound 0.08 µM) was 0.598, the relative viability (AGI-6780 + Phenformin; first compound 0.253 µM) was 0.556 and the relative viability (AGI-6780 + Phenformin; first compound 0.8 µM) was 0.648. For the same cell line, the relative viability (AGI-6780 + Phenformin; first compound 8 µM) was 0.495, the relative viability (AGI-6780 + OSI-027; first compound 0.08 µM) was 0.172 and the relative viability (AGI-6780 + OSI-027; first compound 0.253 µM) was 0.224. It also gave a relative viability (AGI-6780 + OSI-027; first compound 0.8 µM) of 0.189, a relative viability (AGI-6780 + OSI-027; first compound 8 µM) of 0.197 and a relative viability (AGI-6780 + Crizotinib; first compound 0.08 µM) of 0.262. It also gave a relative viability (AGI-6780 + Crizotinib; first compound 0.253 µM) of 0.209, a relative viability (AGI-6780 + Crizotinib; first compound 0.8 µM) of 0.271 and a relative viability (AGI-6780 + Crizotinib; first compound 8 µM) of 0.211. For the same cell line, the relative viability (AGI-6780 + Trametinib; first compound 0.08 µM) was 0.864, the relative viability (AGI-6780 + Trametinib; first compound 0.253 µM) was 0.69 and the relative viability (AGI-6780 + Trametinib; first compound 0.8 µM) was 0.813. For the same cell line, the relative viability (AGI-6780 + Trametinib; first compound 2.53 µM) was 0.541 and the relative viability (AGI-6780 + Trametinib; first compound 8 µM) was 0.868.
Work on LOU-NH91 yielded a relative viability (AGI-6780 + Phenformin; first compound 0.08 µM) of 0.707, a relative viability (AGI-6780 + Phenformin; first compound 0.253 µM) of 0.659 and a relative viability (AGI-6780 + Phenformin; first compound 0.8 µM) of 0.774. For the same cell line, the relative viability (AGI-6780 + Phenformin; first compound 2.53 µM) was 0.677, the relative viability (AGI-6780 + Phenformin; first compound 8 µM) was 0.698 and the relative viability (AGI-6780 + OSI-027; first compound 0.08 µM) was 0.739. The relative viability (AGI-6780 + OSI-027; first compound 0.253 µM) was 0.705, the relative viability (AGI-6780 + OSI-027; first compound 0.8 µM) was 0.676 and the relative viability (AGI-6780 + OSI-027; first compound 2.53 µM) was 0.621. For the same cell line, the relative viability (AGI-6780 + OSI-027; first compound 8 µM) was 0.709, the relative viability (AGI-6780 + Crizotinib; first compound 0.08 µM) was 0.753 and the relative viability (AGI-6780 + Crizotinib; first compound 0.253 µM) was 0.764. The relative viability (AGI-6780 + Crizotinib; first compound 0.8 µM) was 0.712, the relative viability (AGI-6780 + Crizotinib; first compound 2.53 µM) was 0.705 and the relative viability (AGI-6780 + Crizotinib; first compound 8 µM) was 0.715. For the same cell line, the relative viability (AGI-6780 + Trametinib; first compound 0.08 µM) was 0.826, the relative viability (AGI-6780 + Trametinib; first compound 0.253 µM) was 0.777 and the relative viability (AGI-6780 + Trametinib; first compound 0.8 µM) was 0.765. For the same cell line, the relative viability (AGI-6780 + Trametinib; first compound 2.53 µM) was 0.751 and the relative viability (AGI-6780 + Trametinib; first compound 8 µM) was 0.824.

— the supplement of paper PMC10307832
